Two molecules from paper PMC11440508, “Dually Labeled Neurotensin NTS1R Ligands for Probing Radiochemical and Fluorescence-Based Binding Assays” (Journal of Medicinal Chemistry, 2024) can be followed below.

Entries after “also recorded” stand apart in the source; their conditions may differ. Where only a bound is given, the exact number is not on record here.

A word on the Kd: it is the free concentration of one partner at which half of the binding sites on the other are occupied at equilibrium, for simple one-to-one binding.

Data set [1] addresses NTS1R (Homo sapiens, UniProt P30989). Kind of data set: Fluorescence anisotropy (FA) equilibrium saturation binding at hNTS1R-displaying BBVs. More on the design: NlucC (C-terminal fragment of nanoluciferase, 11 amino acids) (C); made in house; host or cells: Sf9 insect cells, baculovirus (pIMACE-CMVintP10-hNTS1R-Nluc, DH10MultiBac); budded baculovirus particles. Conditions: NTS1R-BBV, 27 °C. On the procedure:
FA-based NTS1R binding studies with 13 and 18 were performed at hNTS1R displaying budded baculovirus particles (termed BBVs below), which were obtained from Sf9 insect cells following the procedure reported for the preparation of neuropeptide Y Y1R displaying BBVs.[61] The obtained viruses were collected by centrifugation at 1600g for 10 min, and the virus titer was determined with an image-based cell-size estimation assay as described elsewhere.[62] The viruses were amplified using a multiplicity of infection (MOI) between 0.01 and 0.1 until a high-titer baculovirus stock (virus concentration of at least 1.0 × 10^8 infectious viral particles/mL) was acquired. To produce BBV preparations with a high receptor density, Sf9 cells with a density of 1.9 × 10^6 cells/mL were infected with an MOI of 3 and the BBVs were collected by centrifugation 63 h after the infection, when the cell viability was <30%. […]
FA measurements were performed with a Synergy NEO multimode plate reader (BioTek, Winooski, VT) and black, half area, flat bottom polystyrene nonbinding surface (NBS) 96-well plates (product no. 3993; Corning, Corning, NY). Polarizing excitation (530 ± 15 nm) and dual emission (590 ± 17.5 nm) filters with a dichroic mirror were used, allowing the simultaneous detection of parallelly and perpendicularly polarized fluorescence emission after polarizing beam splitter. […]
In general terms: Polarisation of emitted light reports the rotation of a fluorescent probe.

Data set [2] can be described thus: Stability in human plasma/PBS 1:2 v/v. Type of data set: in vitro ADME. Conditions: for % intact compound in plasma: 37 °C; for % intact compound in plasma / remaining at 24 h, 80 μM: 24 h. The protocol: The proteolytic stabilities of 13 and 18 were investigated in human blood plasma/PBS (136.9 mM NaCl, 2.68 mM KCl, 5.62 mM Na2HPO4, 1.09 mM NaH2PO4, and 1.47 mM KH2PO4, pH 7.4) 1:2 v/v according to a described procedure[38] with the following modifications: 5 mM stock solutions in EtOH/10 mM aqueous HCl 1:1 v/v were used for the addition of the peptides to plasma/PBS 1:2 v/v. As the RP-HPLC purity of 1-methyl-D-Trp, used as internal standard (IS), was <95%, the compound was purified by preparative HPLC to give a purity of >99%. The concentration of the peptides in plasma/PBS 1:2 v/v was 40 μM (recovery determination) or 80 μM (stability tests). Samples were analyzed using the same RP-HPLC system and conditions as described under Analytical HPLC with the following gradient: 0–6 min: acetonitrile/0.04% aqueous TFA 10:90–21:79, 6–12 min: 21:79–40:60, 12–13 min: 40:60–95:5, 13–16 min: 95:5 (isocratic). Data analysis was based on UV detection at 220 nm. Reference samples, representing 100% recovery, were prepared in quadruplicate. Recovery ratios were obtained by dividing the recovery of the peptide by the recovery of IS for each individual sample (n = 4). The obtained recoveries and the recovery ratios are summarized in Table S2, Supporting Information.

Data set [3] is described as follows: Chemical stability in PBS (pH 7.4). Format: physicochemical. The following applies: PBS pH 7.4, room temperature, up to 48 h, RP-HPLC. The protocol: The chemical stability of peptides 13 and 18 was investigated in PBS (adjusted to pH 7.4) at 22 °C in the dark. The incubation was started by the addition of 15 μL of a 1 mM stock solution (solvent: DMSO) to 135 μL of PBS to yield a concentration of 100 μM. After periods of 0, 6, 24, and 48 h, an aliquot (25 μL) was removed and added to 25 μL of acetonitrile/0.04% aqueous TFA 1:9 v/v to obtain a peptide solution with a concentration of 50 μM. 20 μL of this solution were subjected to analytical RP-HPLC analysis using the same system and conditions as described under Analytical HPLC with the following gradient: 0–14 min: acetonitrile/0.04% aqueous TFA 10:90–30:70, 14–15 min: 30:70–95:5, 15–20 min: 95:5 (isocratic). A 1:1 mixture of PBS and acetonitrile/0.04% aqueous TFA 1:9 v/v (20 μL) was analyzed to obtain the blank chromatogram.

[4] abbreviates: human blood plasma/PBS 1:2 v/v, pH 7.4, 37 °C, read-out: % intact compound in plasma.

Chain of NTS1R (P30989 whole entry, the tested form may be a part): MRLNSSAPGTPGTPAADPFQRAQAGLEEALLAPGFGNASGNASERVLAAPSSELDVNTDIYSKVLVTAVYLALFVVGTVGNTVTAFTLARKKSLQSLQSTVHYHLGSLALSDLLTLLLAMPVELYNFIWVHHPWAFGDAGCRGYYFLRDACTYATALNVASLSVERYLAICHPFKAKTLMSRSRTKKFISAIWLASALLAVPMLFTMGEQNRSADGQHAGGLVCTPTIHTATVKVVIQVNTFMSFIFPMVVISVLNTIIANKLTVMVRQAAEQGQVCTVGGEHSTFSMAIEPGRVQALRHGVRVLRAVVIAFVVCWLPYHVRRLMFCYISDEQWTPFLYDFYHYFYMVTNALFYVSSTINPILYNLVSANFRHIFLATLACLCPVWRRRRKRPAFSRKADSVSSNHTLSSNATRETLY

With `CCC(=O)NCCCCNC(=O)NC(=N)NCCC[C@H](NC(=O)[C@@H]1CCCN1C(=O)[C@@H](NC(=O)CCc1cn(CCCNC(=O)CCC#Cc2ccc3c(c2)C(C)(C)C2=C4C=C5C6=[N+](CCC5OC4CCN23)c2ccc(S(=O)(=O)[O-])cc2C6(C)C)nn1)C1CCNCC1)C(=O)N[C@@H](CCCNC(=N)N)C(=O)N1CCC[C@H]1C(=O)N[C@H](C(=O)N[C@H](C(=O)N[C@@H](CC(C)C)C(=O)O)[C@@H](C)CC)C(C)(C)c1ccc(O)cc1` (stereo partly drawn) [Compound 18, N^α-(3-(N-(1-(8-Sulfonato-5,5,27,27-tetramethyl-16-oxa-20-aza-12-azoniaheptacyclo[15.11.0.03,15.04,12.06,11.020,28.021,26]octacosa-1(28),2,4(12),6(11),7,9,21(26),22,24-nonaen-24-yl)-5-oxopentyn-5-yl)-1-aminoprop-3-yl-1H-1,2,3-triazol-4-yl)propanoyl)-2-(piperidin-4-yl)-Gly-Pro-N^ω-[(4-(N-propanoyl)aminobutyl)aminocarbonyl]Arg-Arg-Pro-β,β-dimethyl-L-Tyr-Ile-Leu Tris(hydrotrifluoroacetate)], in data set [1], the Kd was found to be 1.5 ± 0.1 nM. For the same molecule, in data set [2], the “% intact compound in plasma” value is listed as over 50%. In data set [2] (setting [4]), the remaining at 2 h, 80 μM came to 95 ± 6%; the remaining at 6 h, 80 μM was determined as 90 ± 6%; the remaining at 24 h, 80 μM is 82 ± 4%; the remaining at 48 h, 80 μM turned out to be 52 ± 4%. Besides, in data set [3], the “chemical stability in PBS” value is “highly stable over 48 h; also recorded: no decomposition”.

As for `CCC(=O)NCCCCNC(=O)N=C(N)NCCC[C@H](NC(=O)[C@@H]1CCCN1C(=O)[C@@H](NC(=O)CCc1cn(CCCNC(=O)c2ccc(-c3c4ccc(=[N+](C)C)cc-4oc4cc(N(C)C)ccc34)c(C(=O)[O-])c2)nn1)C1CCNCC1)C(=O)N[C@@H](CCCNC(=N)N)C(=O)N1CCC[C@H]1C(=O)N[C@@H](Cc1ccc(O)cc1)C(=O)N[C@H](C(=O)N[C@@H](CC(C)C)C(=O)O)[C@@H](C)CC` [Compound 13, N^α-(3-(1-N-((1-Carboxylato-2-(6-(dimethylamino)-3-(dimethyliminio)-3H-xanthen-9-yl)phen-5-yl)1-oxomethyl)aminoprop-3-yl-1H-1,2,3-triazol-4-yl)propanoyl)-2-(piperidin-4-yl)-Gly-Pro-N^ω-[(4-(N-propanoyl)aminobutyl)aminocarbonyl]Arg-Arg-Pro-Tyr-Ile-Leu Tris(hydrotrifluoroacetate)], the Kd in data set [1] is 1.3 ± 0.1 nM. For the same molecule, in data set [2], the “% intact compound in plasma” value is over 50%. Further, the remaining at 0.5 h, 80 μM in data set [2] (human blood plasma/PBS 1:2 v/v, pH 7.4, 37 °C, 30 min, read-out: % intact compound in plasma) was over 99%. In data set [2] (setting [4]), the remaining at 2 h, 80 μM is over 99%; the remaining at 6 h, 80 μM was over 99%; the remaining at 24 h, 80 μM was determined as 86 ± 4%; the remaining at 48 h, 80 μM was found to be 58 ± 5%. Besides, the “chemical stability in PBS” value in data set [3] is “high stability; also recorded: very slow degradation observable after 24 h”.
